# Assay results taken from patent US9567280B2, “Preparation of hop acids and their derivatives” (MillerCoors LLC, priority 2010, dated 2017).
# “Also recorded” adds a separate entry of the source.
# Assays:
# [1] = tested on: Pediococcus damnosus; assay: Bacterial zone of inhibition (BZI), filter paper disks on Universal Beer Agar; format: cell-based; settings: disks immersed in 4000 ppm in 70% ethanol/water
# Procedure: (§1) The antimicrobial effect of three molecules was tested on Pediococcus damnosus and Lactobacillus brevis with two methods (MIC and BZI). MIC was determined based on the concentration at which no bacteria were detected in the modified BMB without Tween 80 culture medium. […] The average diameters of the zones of bacterial inhibition in Universal Beer Agar (UBA) produced by the filter paper disks immersed in 4000 ppm of THICO I, II, and III in 70% ethanol/water are shown in Table 5. Zone diameters increased with the same rates for three molecules on two different organisms (Pediococcus damnosus and Lactobacillus brevis) indicate that all molecules have the same antibacterial effectiveness. No enantioselective antibacterial interactions between THICO I, II, III and the microbial occur.
# [2] = tested on: Lactobacillus brevis; assay: as above; format: cell-based; settings: disks immersed in 4000 ppm in 70% ethanol/water
# Procedure: as §1
# [3] = Bitterness perception in aqueous 5% v/v ethanol/H2O solution; settings: 6 ppm in 5% ethanol/H2O
# Excerpt: An aqueous 5% v/v ethanol/H2O solution was spiked with 6 ppm of THICO I, II, and III.
# [4] = Sensory evaluation of unhopped lagers spiked with THICO
# Excerpt: Two sets of unhopped lagers (A and B) were spiked with 6 ppm and 13 ppm of THICO I, II, and III, respectively.
# The other two beers were noted as being similar with initial intense bitterness that diminished slowly with slight lingering bitterness.
# [5] = tested on: Pediococcus damnosus; assay: Minimum inhibitory concentration (MIC) in modified BMB without Tween 80 culture medium; format: cell-based; set-up: key to Growth of beer spoilage bacteria: + = Growth of beer spoilage bacteria; − = No growth of beer spoilage bacteria; +/− = Partial inhibition of bacterial growth; settings: for Growth of beer spoilage bacteria: hop acids in 70% ethanol; for Minimum inhibitory concentration (MIC): concentration at which no bacteria were detected
# Procedure: as §1
# [6] = set A: unhopped lager spiked with 6 ppm
Substance,Diameter of Bacterial Zone of Inhibition [1] [mm],Diameter of Bacterial Zone of Inhibition [2] [mm],Bitterness (bitter perception) [3],Bitterness intensity (rank order) [3],Bitterness (bitter perception) ([3]; listed as (±)-THICO III),Bitterness intensity (rank order) ([3]; listed as (±)-THICO III),"Sensory evaluation of bitterness in beer [4, 6]","Sensory evaluation of bitterness in beer ([4]; set A: unhopped lager spiked with 6 ppm, listed as THCO II)",Sensory evaluation of bitterness in beer ([4]; set B: unhopped lager spiked with 13 ppm),Growth of beer spoilage bacteria ([5]; 0.5 ppm),Growth of beer spoilage bacteria ([5]; 1 ppm),Growth of beer spoilage bacteria ([5]; 2 ppm),Growth of beer spoilage bacteria ([5]; 4 ppm),Growth of beer spoilage bacteria ([5]; 8 ppm),Growth of beer spoilage bacteria ([5]; 16 ppm),Growth of beer spoilage bacteria ([5]; 32 ppm),Growth of beer spoilage bacteria ([5]; 64 ppm),Growth of beer spoilage bacteria ([5]; 128 ppm),Minimum inhibitory concentration (MIC) [5] [ppm]
(±)-cis- and (±)-trans-tetrahydroisocohumulones [THICO III],12,22.5,"smooth and milder than the others; also recorded: smooth, milder, clean",II>III>I,"milder and smooth bitterness than THICO I; also recorded: smooth, clean and milder than I and II",THICO II>(±)-THICO III>THICO I,diminished quickly,,,,,,,,,,,,
(−)-cis- and (+)-trans-tetrahydro isocohumulone [THICO II],12,26.5,,THICO II>(±)-THICO III>THICO I,,,the most bitterness and longest lingering,the strongest initial bitterness and lingered the longest,strong initial bitterness that increased (described as late bitterness) and also lingered,+,+,+,+,+,+/−,−,−,−,16
(+)-cis- and (−)-trans-THICO [THICO I],11.5,26,,THICO II>(±)-THICO III>THICO I,,,a little more initial bitterness,,,+,+,+,+,+,+/−,−,−,−,16
